Test results as given in PMC8421423, “Cellular model system to dissect the isoform-selectivity of Akt inhibitors” (Nature Communications, 2021).
Several values for one entry are separate records, joined by “and”; a condition that tells them apart may be missing. Equal values may be shown once. Read-outs that look alike come from different tables or passages of the source.

Legend:
[1] = tested on: Ba/F3^myr-Akt1 cells; assay: CellTiter-Glo cell viability assay; conditions: for cell viability: CTG
Description: On day 0, cells were plated into white 384-well cell culture plates (Greiner Bio-One) using a Multidrop reagent dispenser (Thermo Fisher Scientific) at cell numbers that ensure linear and optimal luminescent signal intensity (Ba/F3myr-Akt1: 600 cells/well, Ba/F3myr-Akt2: 800 cells/well, Ba/F3myr-Akt3: 800 cells/well). […] Cell viability was analyzed on day 4 using the CellTiter-Glo Assay (Promega) as per the manufacturer’s instructions. […] All experimental points were measured in duplicates for each plate and were replicated in at least three plates.

[2] = target: T1, Akt3 (Homo sapiens, UniProt Q9Y243); assay: STK HTRF KinEASE activity-based assay (IC50)
Description: The biochemical half maximal inhibitory concentrations (IC50) were determined with the STK HTRF KinEASE assay (Cisbio) according to the manufactor’s instructions. Briefly: 5 µL Kinase solution and 2.5 µL inhibitor solution (8% DMSO in HTRF buffer) were incubated for 1 h before the reaction was started by addition of 2.5 µL starting solution containing ATP and substrate peptide. […] After reaction completion (Akt1: 60 min, Akt2: 20 min, Akt3: 15 min), 10 µL of stop solution were added. […] The quotient of both intensities were recorded at eight different inhibitor concentrations and data fit to a Hill 4-parameter equation with Quattro software suite (Quattro Research GmbH, Martinsried, Germany). Each reaction was performed in duplicates and at least three independent determinations of each IC50 were made.

[3] = tested on: pAkt2; assay: Western blot analysis, PANC1 cells; format: cell-based, human; conditions: PANC1, 24-h treatment
Description: Cells were seeded into six-well tissue culture plates (Sarstedt) (BaF3 myr-Akt1/2/3: 10^6 cells/well, PANC1: 250.000 cells/well). […] Cell lysis was initiated by addition of 100 μL RIPA buffer (Cell Signaling Technology) per well supplemented with phosphatase and protease inhibitor cocktails (Sigma) followed by incubation on ice for 20 min. Cells were then harvested by scraping (PANC1) or centrifugation (BaF3). Whole cell lysates were cleared by centrifugation at 14,000×g/4 °C for 10 min and transferred into fresh, pre-cooled microcentrifuge tubes. Protein concentrations were determined using the Pierce BCA protein assay (Thermo) as per manufacturer’s instructions. Equal amounts of protein were separated by SDS-PAGE and transferred to Immobilon-FL PVDF membranes (Merck Millipore) using Pierce™ 1-step transfer buffer (Thermo) and the Pierce™ Power Blotter (Thermo). Membranes were washed for 5 min with ddH2O, blocked with Intercept®Blocking Buffer TBS (Li-Cor) for 1 h at room temperature, and then incubated with primary antibodies diluted in Intercept®Blocking Buffer TBS overnight at 4 °C with gentle agitation. On the next day, the membranes were washed three times with TBS-T (50 mM Tris, 150 mM NaCl, 0.05 % Tween 20, pH 7.4) for 5 min before being incubated with secondary antibodies diluted in Intercept®Blocking Buffer TBS for 1 h at room temperature with gentle agitation. Finally, the membranes were washed three times for 5 min with TBS-T and then scanned using an Odyssey®CLx imaging system (Li-Cor).

[4] = target: Akt1 (Homo sapiens, UniProt P31749); assay: STK HTRF KinEASE activity-based assay (IC50)
[5] = target: T1, Akt3; assay: Cellular thermal shift assay (CETSA) in PANC1 cells; format: cell-based; parameters: purchased ProQinase #1578-0000-1
Description: (§1) Cells were seeded into 100 mm tissue culture plates (Sarstedt) (PANC1: 10^6 cells). After 24 h incubation, cells were treated with 1 µM of inhibitors or DMSO and were incubated for 4.5 h. Cells were washed twice with ice-cold PBS and then suspended in 1 mL PBS. Cells were collected and separated into equal volumes (100 µL). The aliquots were treated individually with different temperatures for 3 min, followed by a 3 min incubation at room temperature. Cell lysis was initiated by adding 100 µL RIPA buffer and 2 freeze-thaw cycles in liquid nitrogen. The lysates were centrifuged at 21,130×g for 20 min at room temperature. The supernatants were transferred into fresh, pre-cooled microcentrifuge tubes, and analyzed by western blot analysis as described above.

[6] = target: Akt2 (Homo sapiens, UniProt P31751); assay: as above; format: cell-based; parameters: purchased Thermo Fisher Scientific #PV3184
Description: as §1

[7] = CETSA PANC1, 0.3 µM, temperature 39.9
[8] = CETSA PANC1, 0.3 µM, temperature 43.5
[9] = CETSA PANC1, 0.3 µM, temperature 48.4
[10] = CETSA PANC1, 0.3 µM, temperature 53.8
[11] = CETSA PANC1, 0.3 µM, temperature 58.1
[12] = CETSA PANC1, 0.3 µM, temperature 61.4
[13] = CETSA PANC1, 0.3 µM, temperature 65.6
[14] = CETSA PANC1, 0.3 µM, temperature 70.9
[15] = CETSA PANC1, 0.3 µM, temperature 76
[16] = CETSA PANC1, 0.3 µM, temperature 79.9
[17] = CETSA PANC1, 1 µM, temperature 39.9
[18] = CETSA PANC1, 1 µM, temperature 43.5
[19] = CETSA PANC1, 1 µM, temperature 48.4
[20] = CETSA PANC1, 1 µM, temperature 53.8
[21] = CETSA PANC1, 1 µM, temperature 58.1
[22] = CETSA PANC1, 1 µM, temperature 61.4
[23] = CETSA PANC1, 1 µM, temperature 65.6

Akt2, sequence (P31751 whole entry): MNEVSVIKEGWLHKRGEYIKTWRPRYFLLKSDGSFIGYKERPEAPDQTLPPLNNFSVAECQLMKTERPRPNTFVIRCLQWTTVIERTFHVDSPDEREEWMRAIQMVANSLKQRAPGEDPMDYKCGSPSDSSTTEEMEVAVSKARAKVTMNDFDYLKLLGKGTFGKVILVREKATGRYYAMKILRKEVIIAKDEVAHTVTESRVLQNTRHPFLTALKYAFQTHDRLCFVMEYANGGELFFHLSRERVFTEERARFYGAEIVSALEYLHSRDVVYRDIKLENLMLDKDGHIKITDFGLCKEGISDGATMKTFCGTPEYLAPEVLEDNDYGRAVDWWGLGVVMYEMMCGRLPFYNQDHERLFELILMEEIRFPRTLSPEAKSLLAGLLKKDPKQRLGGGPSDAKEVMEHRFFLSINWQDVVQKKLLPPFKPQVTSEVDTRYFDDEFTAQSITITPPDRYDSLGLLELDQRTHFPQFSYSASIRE
Akt1, sequence (P31749 whole entry): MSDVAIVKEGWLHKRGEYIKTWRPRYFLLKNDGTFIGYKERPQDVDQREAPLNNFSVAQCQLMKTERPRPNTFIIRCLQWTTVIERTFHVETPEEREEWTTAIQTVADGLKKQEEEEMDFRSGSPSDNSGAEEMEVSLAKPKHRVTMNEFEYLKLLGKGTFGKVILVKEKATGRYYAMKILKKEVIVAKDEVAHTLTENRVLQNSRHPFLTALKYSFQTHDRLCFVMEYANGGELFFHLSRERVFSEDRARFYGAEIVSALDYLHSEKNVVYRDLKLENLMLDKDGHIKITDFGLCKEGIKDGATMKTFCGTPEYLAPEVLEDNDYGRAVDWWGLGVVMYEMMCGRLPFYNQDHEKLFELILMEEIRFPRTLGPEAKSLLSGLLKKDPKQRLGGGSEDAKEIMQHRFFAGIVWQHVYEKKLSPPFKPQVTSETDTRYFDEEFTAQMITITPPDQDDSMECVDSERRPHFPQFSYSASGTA
T1 sequence (Q9Y243 whole entry): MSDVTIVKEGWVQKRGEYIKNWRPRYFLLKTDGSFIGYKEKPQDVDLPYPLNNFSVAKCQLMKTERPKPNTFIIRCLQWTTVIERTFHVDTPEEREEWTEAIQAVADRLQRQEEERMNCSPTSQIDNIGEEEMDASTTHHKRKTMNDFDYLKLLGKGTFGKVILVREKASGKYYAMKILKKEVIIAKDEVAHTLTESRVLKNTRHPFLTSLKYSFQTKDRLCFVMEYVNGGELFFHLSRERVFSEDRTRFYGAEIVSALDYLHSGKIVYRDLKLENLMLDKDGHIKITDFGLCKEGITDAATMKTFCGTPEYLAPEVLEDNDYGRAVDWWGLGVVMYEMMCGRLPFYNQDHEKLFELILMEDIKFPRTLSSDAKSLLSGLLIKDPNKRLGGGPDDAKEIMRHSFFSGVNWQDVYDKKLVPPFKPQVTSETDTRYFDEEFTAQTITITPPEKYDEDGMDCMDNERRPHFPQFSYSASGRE

SMILES: C=CC(=O)Nc1ccc2[nH]c(=O)n(C3CCN(Cc4ccc(-c5ncccc5-c5ccccc5)cc4)CC3)c2c1 [compound 1]
- cell viability ([1]; myr-Akt1, 0.1 nM, single replicates, 0.0001 µM): 91.2 % of control and 96.3 % of control
- cell viability ([1]; myr-Akt1, 5000 nM, single replicates, 5 µM): 6.7 % of control and 13.9 % of control and 18.5 % of control
- EC50 ([1]; Mus musculus, read-out: CTG BaF3myr-Akt1, Mean, mean of replicates): 1790 nM
- viability at 0.0001 µM ([1]; Mus musculus, read-out: cell viability, CTG, myr-Akt1, 0.1 nM, single replicates): 85.5%
- Log ratio EC50 [Akt] / EC50 [Akt], Akt1 / Akt2 ([1]; cell viability assay Ba/F3 myr-Akt cells, log units): -0.40
- EC50 ([1]; read-out: CTG BaF3myr-Akt1, individual determinations, single replicates): 1190 nM and 1500 nM and 2670 nM
- IC50 ([2]; HTRF IC50 Akt3, individual determinations, single replicates): 5630 nM and 8200 nM and 6050 nM
- IC50 ([2]; IC50 Akt3, HTRF, ATP at KM, 1 h preincubation): 6630 ± 1130 nM
- loss of activity for Akt3 compared to Akt1 ([2]; biochemical IC50): 100 fold
- pAkt2 level (immunoblot) [3]: downregulation of pAkt1 and pAkt2
- IC50 ([4]; HTRF IC50 Akt1, individual determinations, single replicates): 43.9 nM and 72.2 nM and 42.8 nM
- IC50 ([4]; IC50 Akt1, HTRF, ATP at KM, 1 h preincubation): 53 ± 13 nM
- Log ratio IC50 [Akt] / IC50 [Akt], Akt1 / Akt2 ([4]; biochemical activity based assay, log units): -1.05
- tAkt3 % [5, 7]: 100.00%
- tAkt3 % [5, 8]: 53.46%
- tAkt3 % [5, 9]: 48.12%
- tAkt3 % [5, 10]: 46.68%
- tAkt3 % [5, 11]: 22.77%
- tAkt3 % [5, 12]: 21.02%
- tAkt3 % [5, 13]: 20.86%
- tAkt3 % [5, 14]: 9.30%
- tAkt3 % [5, 15]: 7.63%
- tAkt3 % [5, 16]: 0.00%
- tAkt3 % [5, 17]: 100.00%
- tAkt3 % [5, 18]: 12.48%
- tAkt3 % [5, 19]: 11.45%
- tAkt3 % [5, 20]: 15.32%
- tAkt3 % [5, 21]: 13.90%
- tAkt3 % [5, 22]: 14.16%
- tAkt3 % [5, 23]: 2.70%
- tAkt3 % ([5]; CETSA PANC1, 1 µM, temperature 70.9): 0.26%
- tAkt3 % ([5]; CETSA PANC1, 1 µM, temperature 76): 0.00%
- tAkt3 % ([5]; CETSA PANC1, 1 µM, temperature 79.9): 0.00%
- tAkt2 % [6, 7]: 100.00%
- tAkt2 % [6, 8]: 64.53%
- tAkt2 % [6, 9]: 56.84%
- tAkt2 % [6, 10]: 46.79%
- tAkt2 % [6, 11]: 50.34%
- tAkt2 % [6, 12]: 34.71%
- tAkt2 % [6, 13]: 11.57%
- tAkt2 % [6, 14]: 0.00%
- tAkt2 % [6, 15]: 3.97%
- tAkt2 % [6, 16]: 0.00%
- tAkt2 % [6, 17]: 100.00%
- tAkt2 % [6, 18]: 102.86%
- tAkt2 % [6, 19]: 75.10%
- tAkt2 % [6, 20]: 33.02%
- tAkt2 % [6, 21]: 70.90%
- tAkt2 % [6, 22]: 3.44%
- tAkt2 % [6, 23]: 7.92%
